From patent US20050003383A1, “Linoleate isomerase” (Arkion Life Sciences LLC d/b/a Bio-Technical Resources …, priority 1999, published 2005)
Read-outs that look alike come from different tables or passages of the source.

Assays:
[1] = system: linoleate isomerase from Clostridium sporogenes; assay: C. sporogenes linoleate isomerase kinetic assay, absorbence at 234 nm, partially purified enzyme; format: biochemical; conditions: for substrate has an inhibitory effect at concentrations above: substrate concentration dependency of isomerization
Experimental: In this experiment, all kinetic experiments were performed in a quartz cuvette (1-cm light-path with a magnetic stirrer) at room temperature using a HP 8452A diode array spectrophotometer. The cuvette was filled with 1 ml of incubation buffer containing 50 μg protein, 0.1 M potassium phosphate, pH7.5, 10 mM NaCl and 10% 1,2-propane diol. The isomerization was initiated by adding a small aliquot (1-2 μl) of freshly diluted substrate-stock (˜[…] linoleic acid) in 1,2-propane diol at 50 seconds. The increase in absorbence at 234 nm was monitored and recorded. […] The amount of product formed was calculated based on a molar extinction coefficient of 24,000.

[2] = system: B. fibrisolvens A-38 linoleate isomerase; conditions: cited from earlier work; for Km / Vmax: compound as substrate, Kepler and Tove (1967)
[3] = cited from earlier work
[4] = system: L. reuteri PYR8; assay: Whole cell biotransformation of linoleic acid to CLA by L. reuteri PYR8; format: cell-based, Lactobacillus reuteri; conditions: for effect on (cis,trans)-9,11-CLA formation: nonionic detergent added
Experimental: Cultures were grown and harvested as described above. Washed cells were resuspended in either fresh growth medium or 0.1 M Tris pH 8.0 buffer containing linoleic acid at various concentrations.
Samples were taken at appropriate intervals and analyzed for CLA as described in Example 2. In some experiments, various detergents were added to 0.1-0.5% final concentration. […] About 5 mL solvent was added to about 20 mL aqueous cell suspension in a 125 mL baffled shake flask incubated at room temperature.
Whole cells of L. reuteri PYR8 were used in all biotransformation experiments described below.
The effect of substrate and product on the enzyme performance was also investigated, as well as the possibility of recycling the cells. The effect of CLA on the reaction was studied by adding different concentrations of either a mixture of isomers (Sigma material, approximately 41% 9,11 isomer and 48% 10,12 CLA), or just 9,11 CLA (Matreya material, approximately 77% 9,11 CLA). Concentrations from 500 to 3000 ppm were tested. Some experiments were also performed recycling the broth from a previous biotransformation reaction with L. reuteri PYR8, resulting in an initial CLA concentration around 700 ppm. In every case, 1000 ppm linoleic acid were added.
In the second experiment, cell recycle was studied with cells that have performed the biotransformation at different levels of linoleic acid. Cells were harvested, resuspended in breakage buffer at a 10-fold concentration, and linoleic acid was added at 1000, 1500, 2000, 2500 and 3000 ppm level. Given the higher linoleic acid concentration, the reaction was allowed to proceed for six hours. […] 1000 ppm linoleic acid were added and the reaction was followed for four hours.

[5] = target: P. acnes ATCC 6919 linoleate isomerase (Cutibacterium acnes, UniProt Q6A8X5); format: biochemical, Propionibacterium acnes
Experimental: Formation of CLA was determined by measuring the absorbence at 234 nm. […] Generally, the isomerase was assayed using an endpoint assay after 30 to 60 minutes incubation at room temperature. FIG. 18 (time course assay at different linoleic acid levels) and FIG. 19 (end point assay at different linoleic acid levels) show the effect of increasing substrate concentration on formation of […].

[6] = system: C. sporogenes ATCC 25762 linoleate isomerase; assay: C. sporogenes isomerase activity and stability in extracts with additives; format: biochemical, Clostridium sporogenes; conditions: for effect of chelating agents on enzyme activity and stability: 1 mM; for effect on the stability of the isomerase: PMSF 0.1-1.0 mM, iodoacetamide 1 mM
Experimental: Temperature sensitivity of the isomerase in crude extracts was tested at 4° C., room temperature (˜25° C.) and 37° C. […] The optimum pH was monitored by adjusting the pH from 5.0 to 9.0 using the 0.1M Tris buffer containing 10 mM NaCl, 1 mM DTT and 40 ppm linoleic acid.
The concentration of linoleic acid was tested from 0 to 100 ppm (FIG. 26).
Two different media, BHI and MRS, were tested. […] Protease inhibitors, PMSF (0.1-1.0 mM), iodoacetamide (1 mM) and pepstatin A were tested for their effects on the stability of the isomerase.
It has been reported that solubilization in the presence of lysophosphatidylcholine (LPC) allows higher detergent concentrations to be used, thus allowing more complete membrane protein solubilization. CaCl2 can activate enzymes, such as some nucleases.

[7] = system: L. reuteri PYR8 linoleate isomerase; assay: L. reuteri PYR8 linoleate isomerase kinetic assay; format: biochemical, Lactobacillus reuteri
Experimental: Linoleic isomerase activity was assayed either via CLA quantification by gas chromatography as described in Example 2 or by spectrophotometry. The enzyme assay was carried out in 0.1 M Tris buffer pH 7.5, 10 mM NaCl, 1 mM dithiothreitol, with linoleic acid at 20 parts per million (ppm), unless otherwise noted.
About 50 to about 250 μL of enzyme sample was added to 1.5 mL of enzyme assay buffer for reaction. About 1 to about 2 mL of aqueous phase was separated from the enzyme reaction and was extracted with about 3 mL of hexane. In some experiments, and with chromatography fractions containing detergent, 0.5 mL of methanol and 0.5 mL of 5 M NaCl solution were first added to enhance phase separation. The organic layer was separated and the absorbence at 234 nm was measured using a HP 8452A diode array spectrophotometer. Depending on the level of activity, assay mixtures of chromatography fractions were incubated at room temperature from about 1 to about 24 hours before extraction with hexane.
Kinetic assays were performed directly in a 0.5 mL quartz cuvette at room temperature and were continuously monitored at 234 nm. Reactions were initiated by addition of linoleic acid from a concentrated stock prepared in 1,2-propane diol. Reaction buffer was the same as above except it contained 10% 1,2-propane diol.

[8] = Linoleate isomerase characterization (Table 7B), enzymes compared on linoleic acid; format: biochemical; conditions: for CLA Isomer: CLA isomer produced from linoleic acid; for Optimal pH / Km / Vmax: substrate linoleic acid
Experimental: Table 7B is a summary of the kinetic data and characterization of linoleate isomerases from P. acnes (crude extract prior to DEAE purification as in Example 11, except that the Vmax was determined using enzyme purified through the chromatofocusing step as in Example 11), L. reuteri (enzyme purified through the gel filtration step as in Example 3), and C. sporogenes (enzyme purified through the gel filtration step as in Example 17), all isolated by the present inventors, and the B. fibrisolvens A-38 linoleate isomerase (crude extract; Kepler and Tove, 1967, J. Biochem. 242:5686-5692). The substrate in these experiments was linoleic acid.

[9] = compound as substrate at 10 PPM, activity with linoleic acid set as 100%
[10] = compound as substrate, read-out: Km
[11] = pH of about 7.5, about 20° C., read-out: Km for linoleic acid

For `CCCCCCCC/C=C\CCCCCCCC(=O)O` [oleic acid, (cis)-9 octadecenoic acid], the type of inhibition ([1]; 0, 24 and 48 μM oleic acid, varied linoleic acid, Lineweaver-Burke and Hanes-Woolf plots) was “uncompetitive inhibitor”, the “isomerase activity in the presence of inhibitor” value ([1]; 70 μM oleic acid (20 PPM)) was “almost completely lost” and the “RELATIVE ACTIVITY %” value ([1]; compound added at 35 μM, substrate LA 35 μM, pH 7.5, LA alone = 100%) was 25%. The “RELATIVE ACTIVITY %” value [1, 9] was 0%, the Ki ([1]; inhibition of linoleic acid isomerization, calculated from secondary plots, read-out: inhibition constants (Ki)) was 23.8 µM and the type of inhibition ([2]; reported by Kepler and Tove) was “competitive inhibition”.

In the case of `CCCCCCCCCCCCCCCC` [hexadecane], the “log P” value [3] is listed as 8.6.

In the case of `CCCCCCCC/C=C\CCCCCCCC(=O)OCCOCC(OCCO)C1OCC(OCCO)C1OCCO` (stereo not shown) [Tween-80], the “effect on (cis,trans)-9,11-CLA formation” value [4] is reported as “does not significantly increase”.

In the case of `c1cnc2c(c1)ccc1cccnc12` [1,10-phenanthroline], the “inhibition of isomerase activity” value ([5]; EDTA 5 mM, 1,10-phenanthroline 1 mM, p-chloromercuribenzoate 5 μM, N-ethylmaleimide 100 μM) is reported as “not inhibited” and the “effect of chelating agents on enzyme activity and stability” value ([6]; crude extracts) is reported as “protected”.

For `NC(=O)CI` [iodoacetamide], the “effect on the stability of the isomerase” value [6] was “None provided measurable benefit”.

For `[Ca+2].[Cl-].[Cl-]` [CaCl2], the “effect on enzyme activity” value ([6]; Tris and phosphate buffer systems) was “decreased the enzyme activity”.

With `O=C(O)CN(CCN(CC(=O)O)CC(=O)O)CC(=O)O` [EDTA] the “effect of chelating agents on enzyme activity and stability” value ([6]; crude extracts) was “negative effect”.

In the case of pepstatin A, the “effect on the stability of the isomerase” value [6] is reported as “None provided measurable benefit”.

For Triton X-100, the “effect on (cis,trans)-9,11-CLA formation” value [4] was “does not significantly increase”.

In the case of `O=S(=O)(F)Cc1ccccc1` [PMSF], the “effect on the stability of the isomerase” value [6] is reported as “None provided measurable benefit”.

In the case of `CC/C=C\C/C=C\C/C=C\CCCCCCCC(=O)O` [linolenic acid, (cis, cis, cis)-9, 12, 15 octadecatrienoic acid], the Vmax ([1]; compound as substrate) is reported as 811 nmole/min/mg protein, the “RELATIVE ACTIVITY %” value [1, 9] is reported as 84% and the Km [1, 10] is reported as 22.5 µM. For the same molecule, the “substrate has an inhibitory effect at concentrations above” value [1] was greater than 40 µM, the Km [2] was 23 µM and the Vmax [2] was 130 nmole/min/mg protein.

In the case of `CCCCC/C=C\C/C=C\CCCCCCCC(=O)O` [linoleic acid, (cis, cis)-9, 12-octadecadienoic acid], the “maximal velocity (Vmax)” value ([1]; Lineweaver-Burke plot) is reported as 350 μmol CLA/min/mg protein, the Km ([1]; Lineweaver-Burke plot, read-out: Km) is reported as 11.3 µM and the Vmax ([1]; compound as substrate) is reported as 350 nmole/min/mg protein. The “RELATIVE ACTIVITY %” value [1, 9] was 100%, the Km [1, 10] was 11.3 µM and the Km [1, 11] was no less than 11.3 µM. The “substrate has an inhibitory effect at concentrations above” value [1] was “above 20 μM”, the Vmax ([7]; compound as substrate) was 880 nmole/min/mg protein and the Km [7, 10] was 8.1 µM. The Km [7, 11] was no less than 8.1 µM, the Km [5, 11] was no less than 17.2 µM and the substrate inhibition ([4]; up to 3000 ppm linoleic acid, cells with good activity) was “no substrate inhibition was detected”. The “optimum concentration for linoleic acid” value ([6]; tested from 0 to 100 ppm, crude extracts) was 40 ppm, the Km [2] was 12 µM and the Vmax [2] was 55 nmole/min/mg protein.

B1: L. reuteri: (cis, trans)-9,11-linoleate isomerase from Lactobacillus reuteri PYR8, SEQ ID NO:18 (protein, listed as Lactobacillus reuteri)
chain: MYYSNGNYEAFARPKKPAGVDKKHAYIVGGGLAGLSAAVFLIRDAQMPGENIHILEELPVAGGSLDGEDRPGIGFVTRGGREMENHFECMWDMYRSIPSLEIPGASYLDEYYWLDKEDPNSSNCRLTYKRGNEVPSDGKYGLSKKAIKELTKLIMTPEEKLGRETIGEYFSDDFFESNFWIYWSTMFAFERWHSLAEMRRYMMRFIHHIDGLPDFTALKFNKYNQYESMTKPLLAYLKDHHVKIEYDTQVKNVIVDTHGRQKHAKRILLTQAGKDKVVELTDNDLVFVTNGSITESSTYGSHHQAARPTQALGGSWKLWENLARQSADFGHPDVFCKNLPGRSWFISATATVKNPQVEPYIERLTKRDLHDGKVNTGGIITVTDSNWMLSWTIHRQPHFKKQKKNETIVWIYGLYSNTKGNYIKKRIVDCTGEEITKEWLSIWGFQKPLIDDLAKESSINTVPVYMPFITSYFMPRVKGDRPDVVPEGSANLAFIGNFAESPSRDTVFTTEYSVRTAMEAVYTLLDVDRGVPEVFNSIYDLRELMRAMYYMNDKKPLKDMDLPIPKIVEKPLLKKLQGTWIGELMEQQHLL
With B1 the “CLA Isomer” value [8] was 9,11, the “Optimal pH” value [8] was 7.5 and the Km ([8]; purified enzyme) was 8.1 µM. The Vmax ([8]; purified enzyme) was 880^5 nmol/min/mg.

B2: P. acnes: (trans, cis)-10,12-linoleate isomerase from Propionibacterium acnes ATCC 6919, SEQ ID NO:61 (protein)
chain: MSISKDSRIAIIGAGPAGLAAGMYLEQAGFHDYTILERTDHVGGKCHSPNYHGRRYEMGAIMGVPSYDTIQEIMDRTGDKVDGPKLRREFLHEDGEIYVPEKDPVRGPQVMAAVQKLGQLLATKYQGYDANGHYNKVHEDLMLPFDEFLALNGCEAARDLWINPFTAFGYGHFDNVPAAYVLKYLDFVTMMSFAKGDLWTWADGTQAMFEHLNATLEHPAERNVDITRITREDGKVHIHTTDWDRESDVLVLTVPLEKFLDYSDADDDEREYFSKIIHQQYMVDACLVKEYPTISGYVPDNMRPERLGHVMVYYHRWADDPHQIITTYLLRNHPDYADKTQEECRQMVLDDMETFGHPVEKIIEEQTWYYFPHVSSEDYKAGWYEKVEGMQGRRNTFYAGEIMSFGNFDEVCHYSKDLVTRFFV
modifications: Propionibacterium acnes
With B2 the “Enzyme Solubility” value [8] was “S”, the “CLA Isomer” value [8] was 10,12 and the “Optimal pH” value [8] was 7.3. The Km ([8]; crude extract) was 17.2 µM and the Vmax ([8]; purified enzyme) was 478^5 nmol/min/mg.
